{"source": "patent US11692194B2", "about": "“Modulating expression of polypeptides via new gene switch expression systems” (Precigen, Inc., priority 2017, dated 2023)", "key": {"[1]": {"test_system": "inducible IL-12 constructs (XON-61 or XON-62) in EGFRvIII-CAR-T cells", "experiment": "Veledimex ON-OFF cycling of IL-12 in EGFRvIII-CAR-T cells", "type": "cell-based", "experimental": "For each ON-OFF cycle, veledimex was first added (ON) at previously mentioned concentrations (typically between 20-100 nM) to cell cultures for 2-3 days. An aliquot of cells was harvested and analyzed for expression (ON) of various proteins by flow cytometry and/or ELISA at noted time points. Remaining cell culture was then washed and resuspended in complete medium without veledimex (OFF) and cultured for up to 5 days. Aliquots of cells were harvested and analyzed for expression (OFF) at times mentioned by flow cytometry and/or ELISA as noted above. Veledimex ON-OFF cycle(s) can be repeated again with remaining cell culture by repeating the process.\nThe effect of repeated treatments and withdrawals of veledimex to EGFRvIII-CAR-T cells harboring an inducible IL-12 gene was determined in vitro both in the presence and absence of antigen specific T cell activation by co-culture with AaPCs. In the first cycle (ON-OFF) of ligand treatment, CAR-T cells (10^6/ml) expanded ex vivo by four successive rounds of stimulation with EGFRvIII^+ AaPCs were treated with DMSO or veledimex and cultured in the presence or absence of AaPCs in media containing IL-21 and IL-2. After 48 hours post-treatment, cells were washed thoroughly to remove ligand and cultured in a new culture vessel in media containing IL-21 and IL-2 for 5 days. Culture supernatants harvested between 24-120 hours post-treatment were then analyzed for expression of IL-12 and IFNγ.\nIn the second cycle (ON-OFF) of ligand treatment, CAR-T cells from cultures treated with DMSO or veledimex in the presence of AaPCs in cycle 1 were collected at 5 days after withdrawal of veledimex (in cycle 1) and subjected to a second cycle of ligand treatment with DMSO or veledimex in the presence or absence of antigen specific T cell activation by co-culture with AaPCs. After 48 hours post-treatment, cells were washed thoroughly to remove ligand and cultured in a new culture vessel in media containing IL-21 plus IL-2 for 5 days. Culture supernatants harvested between 24-120 hours post-treatment were then analyzed for expression of IL-12 and IFNγ."}, "[2]": {"test_system": "gene switch controlled mbIL-15 expression in CD19-specific CAR T cells", "experiment": "Flow cytometry of mbIL-15 expression, veledimex ON-OFF-ON, SB gene switch CD19 CAR-T cells", "type": "cell-based, human", "experimental": "Various DNA plasmids expressing a SB transposon system, i.e. SB11, membrane bound IL-15 (mbIL-15), and chimeric antigen receptor (CAR), were transfected to peripheral blood mononuclear cells (PBMC) via nucleofection to redirect T cell specificity (FIG. 1).\nOn day 0, 20 million PBMC were resuspended in 100 μL of Amaxa Human T cell Nucleofector solution (Cat. no. VPA-1002; Lonza, Basel, Switzerland) mixed with a total of 15 μg of transposons and 5 μg of transposase (SB11) and electroporated.\nThe following day (day 1) cells were counted, and CAR expression was measured by flow cytometry. CAR T Cells were stimulated with either γ-irradiated (100 Gy) or mitomycin C treated AaPCs at a 1:1 ratio. The AaPC cells used were K562-AaPC expressing CD19 antigen. Cultures were supplemented with IL-21 (30 ng/ml) only for the first round of stimulation and subsequently with recombinant human IL-2 (50 IU/ml) and IL-21 (30 ng/ml) (Pepro Tech) for remaining stimulations. T cell cultures were phenotyped at the end of each stimulation cycle, which typically lasted 7 days. The cultures were phenotyped for CAR expression by multi-parameter flow cytometry utilizing either Protein L or anti-idiotype antibody that recognizes CD19-specific CAR. Cultures were also closely monitored for the outgrowth of NK cells (defined as CD3negCD56+ population) and were removed from the CAR T cell cultures when the percentage exceeded 10% of total cell populations using magnetic beads for specific for CD56 (Stem Cell Technologies and/or Miltenyi Biotec), according to the manufacturer's instructions.\nCD19-specific T cells were generated from mononuclear cells (MNC) derived from PB or UCB using SB transposition to introduce the CAR followed by addition of AaPC to numerically expand the T cells in a CAR-dependent manner.\nFor flow cytometry analysis to assess expression of various markers and gene(s) of interest, cells were gently resuspended and cell number, and viability were measured using Trypan blue exclusion method with the Countess instrument. Cell diameter size was also recorded. 5×10^5 cells for each for the samples were harvested at 330×g for 4 min at 10° C. for antibody staining. Harvested cells were incubated on ice for at least 15 min with 10% human AB serum in HBSS. Antibody cocktails containing fluorescently conjugated antibodies included one or more of antibodies specific to CD4 (Clone RPA-T4), CD8 (Clone SK1), CD3 (Clone UCHT1), CD56, CD19-specific CAR (anti-idiotype antibody), IL-15, and IL-15Rα, in HBSS+0.1% BSA+2 mM EDTA. The prepared antibody cocktails and associated fluorescence minus one/isotype control were added to stain the cell samples, and then the samples were incubated on ice for 30 min. The samples were then washed then with FACS buffer (HBSS+0.5% BSA+2 mM EDTA) and stained with Fixable Viability Dye (eBiosciences) for 30 min on ice. Cells were washed with FACS buffer and then fixed with a 4% paraformaldehyde solution (BD Cytofix; BD Biosciences). All samples were run on a LSR II flow cytometer, a Fortessa X-20 flow cytometer (BD Biosciences) or iQue Screener Plus (Intellicyt) and data was analyzed using FlowJo V10 (TreeStar, Ashland, Oreg.) or iQue Screener software.\nFor induction of expression using ligand (veledimex), AaPC stimulated CAR-T cells were harvested at 1×10^6 cells/ml. Either veledimex or DMSO (to keep DMSO concentration constant in both cultures) was added to the cultures. Veledimex was used at a concentration of 20 nM, 50 nM, 100 nM or as described. Cells were then cultured at 37° C. in presence of veledimex or DMSO for 2-3 days. After 2-3 days in culture, 5×10^5 cells for each for the samples were harvested at 330×g for 4 min at 10° C. for antibody staining. Harvested cells were incubated on ice for at least 15 min with 10% human AB serum in HBSS. […]"}}, "note": "“Also recorded” adds a separate entry of the source.", "data": [{"smiles": "CCC[C@@H](N(NC(=O)c1cccc(OC)c1CC)C(=O)c1cc(C)cc(C)c1)C(C)(C)C", "note": "[veledimex, N-[(1R)-1-(1,1-dimethylethyl)butyl]-N′-(2-ethyl-3-methoxybenzoyl)-3,5-dimethylbenzohydrazide]", "values": [{"measurement": "IL-12 induction in cycle 2 after veledimex versus DMSO in cycle 1", "setting": "[1]; 48 h post-ligand treatment in cycle 2, with EGFRvIII^+ AaPCs", "value": "increased IL-12 induction"}, {"measurement": "IL-12 expression relative to DMSO", "setting": "[1]; cycle 1, culture supernatants at 48 h post-treatment", "value": "increase in IL-12 expression"}, {"measurement": "levels of IL-12 induction with versus without antigen-specific stimulation", "setting": "[1]; cycle 1, presence vs absence of AaPCs", "value": "enhanced in the presence of AaPC-mediated antigen-specific stimulation; also recorded: significantly lower in the absence of antigen-specific stimulation"}, {"measurement": "control of IL-12 expression over two cycles of ligand treatment", "setting": "[1]; prolonged culture, repeated addition and withdrawal", "value": "can be turned ON and OFF repeatedly; also recorded: can regulate IL-12 expression"}, {"measurement": "IL-12 expression after withdrawal of veledimex", "setting": "[1]; withdrawal at 48 h post-treatment, presence and absence of AaPCs", "value": "reduction of IL-12 expression; also recorded: gradually reduced back to the baseline levels; also recorded: went down to baseline levels"}, {"measurement": "mbIL-15 expression versus veledimex concentration", "setting": "[2]; 2 day incubation at 100, 25, 6.25, 1.56, 0.4 and 0 nM, gated FSC/SSC/LIVE/CD3+", "value": "dose response"}, {"measurement": "expression of mbIL-15 post ligand addition", "setting": "[2]; day 29 post nucleofection, gated on CD19-specific CAR positive populations", "value": "turned on"}, {"measurement": "expression of mbIL-15 post ligand withdrawal", "setting": "[2]; day 35 post nucleofection, gated on CD19-specific CAR positive populations", "value": "turned off"}, {"measurement": "expression of mbIL-15 after re-introduction of ligand", "setting": "[2]; day 40 post nucleofection, gated on CD19-specific CAR positive populations", "value": "maintained"}, {"measurement": "expression of mbIL-15 after re-introduction of ligand", "setting": "[2]; day 48 post nucleofection, gated on CD19-specific CAR positive populations", "value": "continuously maintained"}, {"measurement": "expression of mbIL-15 after re-introduction of ligand", "setting": "[2]; day 50 post nucleofection, gated on CD19-specific CAR positive populations", "value": "continuously maintained"}]}]}
